# Test results taken from patent US6262036A, “Method for inhibiting RNA translation using chimeric oligonucleoside compounds” (priority 2000, dated 2001).
# [mp] = methylphosphonate linkage
# Columns and labels:
# [1] = system: complementary RNA targets; test: Tm of Rp-enriched versus racemic methylphosphonate oligomers with RNA (Example 33); type: binding; details: for Tm: 2.4 μM total strand concentration, pH 7.2, 100 mM sodium chloride
# [2] = system: complementary synthetic RNA target; test: Binding affinities of chimeric backbone oligomers to RNA (Example 35); design: KA (37° C.): unit not given here; details: for Tm: 1:1 molar ratio, 2.4 micromolar total strand, pH 7.2, 100 mM NaCl; for KA (37° C.): two-state model fit
# Description: The following oligonucleotides were tested for their ability to hybridize to a complementary synthetic RNA target.
# The bases shown in parentheses contain the backbone modification indicated in the middle set of brackets for each description, and likewise the terminal portions of the oligomers contain linkage structures as shown in the terminal sets of brackets. The PS/DE notation indicates an alternating array of bases beginning with a phosphorothioate linkage. For example, if there are five bases in a sequence denoted as PS/DE, they include three phosphorothioate (PS) bonds and two phosphodiester (DE) bonds.
# Each oligomer was mixed with its complementary synthetic RNA target in a 1:1 molar ratio in a buffer system consisting of 20 mM sodium phosphate buffer (pH 7.2), 100 mM NaCl, 0.03% potassium sarkosylate and 0.1 mM EDTA; total strand concentration=2.4 micromolar. The resulting solutions were heated to 70° C. and slowly cooled to 4° C. over a time period of approximately 4-6 hours. […] The binding constants at 37° C.
# S1-endonuclease = test: Stability to nuclease digestion by S1-endonuclease (Example 37); type: in vitro ADME; details: S1-endonuclease 0.5 units/mL, pH 5.0, 37° C.; 50% full length oligomer digested
# Description: The following oligomers were tested for nuclease stability in the presence of S1-endonuclease.
# S1-endonuclease was purchased from Promega Corp. (Catalog #E576B, Madison, Wis.). Aliquots of each chimeric oligomer (0.05-0.075 OD260 units) were individually added to polypropylene microcentrifuge tubes containing S1-endonuclease (0.5 units/mL) in 30 mM sodium acetate (pH 5.0), 50 mM NaCl, 1.0 mM zinc acetate and 5% glycerol; total reaction volume=10 μL. These tubes were incubated at 37° C. for specified time periods, quickly frozen in dry ice and then stored in a freezer at -20° C. […] Column=Vydac Protein C4 (catalog #214TP54, 4.9 mm i.d.×250 mm long). Buffer A=50 mM triethylammonium acetate (pH 7)/1% acetonitrile; Buffer B=50 mM triethylammonium acetate (pH 7)/50% acetonitrile. […] The samples were diluted with water (50 μL) and injected onto the column using a 100 μL sample loop. Peaks corresponding to full length oligomer and its degradation products were detected by monitoring at 260 nm. The amount of degradation occurring in each reaction was determined by measuring the reduction in peak area for the full-length oligomer (identified by comparison to an external control and/or by coinjecting undigested oligomer as an internal control). The data is shown in tabular format below, and in graphic format in FIG. 1.
# [3] = Stability to nuclease digestion in 10% fetal calf serum (Example 38); type: in vitro ADME; details: pH 8.0, 37° C., 50% full length oligomer digested, first three time points
# Description: Multiple samples of each chimeric oligomer were prepared in 1.5 mL polypropylene microcentrifuge tubes on ice. Each sample contained oligomer (0.1 OD260 unit), 10% fetal calf serum (FCS, Gemini Bioproducts, Calabasas, Calif.), 20 mM HEPES (pH 8.0), 0.2% paramethylsulfonyl fluoride (PMSF), 175 mM KCl, 0.1 mM dithiothreitol, 0.1 mM EDTA, 2 mM MgCl2 and 4% glycerol--total volume=100 μL. The samples were incubated at 37° C. for specified time periods and then diluted with 0.4% NP-40/acetonitrile (35 μL), quickly frozen on dry ice and stored at -20° C. Samples were then individually thawed, diluted with water (635 μL) and analyzed immediately by reversed-phase HPLC according to the method given in the preceding example (except that a 2 mL sample loop was used to load the samples onto the column). Results are shown in tabular format below, and in graphical format in FIG. 2.
# [4] = system: endogenous eukaryotic RNaseH derived from HeLa cell nuclear extracts; type: biochemical; details: 10 μM oligomer, 1 μM RNA target
# pG1035 (SplicerCAT) = test: Inhibition of CAT expression, splicing target pG1035 (SplicerCAT), in COS-7 cells; type: cell-based, African Green Monkey; details: 1.0 μM oligomer; ± std error; normalized to protein and luciferase; chimeric oligomers also normalized to pG1036
# Description: COS-7 cells were transiently transfected with plasmids encoding either a target reporter gene or a control non-target reporter gene. These cells were then treated with various chimeric antisense or control oligomers and then assayed for the expression of the reporter genes.
# pG1035: Splicer CAT, inserted into a pRc/CMV vector
# COS 7 cells were plated at 1.5×10^5 cells/well in a 12 well plate format on the day before transfections began. All cultures were maintained at 37° C. On the next day, the transfection mixes were prepared. For each well of a 12 well plate, 1.0 μM oligomer was combined with 1 μg pGL2 or pSVβ+1 μg of the target CAT plasmid in 0.5 ml of Optimem (Gibco/BRL) and 18.75 μg Transfectam (for chimeric oligomers, Promega) or Lipofectamine (for all PS oligomers, Promega) also in 0.5 ml of Optimem. These quantities gave a 6.9 or 4.5 or 2.0 to 1 cationic lipid to oligomer plus DNA ratio, respectively, in one milliliter total. pGL2 and pSVβ served as transfection and oligomer specificity controls. […]
# The cell lysates were then assayed for CAT, and luciferase or […] activity, and the total protein concentration was determined as described below. […]
# […] of reaction mixture was then added to each tube, which was then incubated for, typically, approximately 1 hour in a 37° C. oven. […] The sample was then counted in a Packard scintillation counter.
# This assay was performed generally as follows according to standard procedures. 20 μof lysate was combined with 100 μl of luciferase assay reagent (Promega) and counted in a scintillation counter (Packard) within 20 seconds (as recommended by Promega). […]
# Six μl of lysate per well was added, followed by 300 μl Coomassie Protein Assay Reagent (Pierce) per well. The individual sample plates were then read at A570 on a microplate reader (Molecular Devices). […]
# Oligomers were transfected into COS-7 cells and lysates were made and assayed as described previously. […] N.D.=not determined. […]
substance,measurement,setting,value
"1634-1: 5'-TAG-CTT-CCT-TAG-CTC-CTG-3', racemic methylphosphonate (TAGCTTCCTTAGCTCCTG; all [mp], sugars by position and methylation of C not given here) [Oligomer 1634-1]",Tm,[1],38.2 °C
"2253-1: 5'-AGA-GAG-AGA-GAG-AG-T-3', racemic methylphosphonate (AGAGAGAGAGAGAGT; all [mp], sugars by position not given here) [Oligomer 2253-1]",Tm,[1],48.9 °C
"2517-1: 5'-GTG-TGT-GTG-TGT-GTG-TA-3'-3', racemic methylphosphonate (GTGTGTGTGTGTGTGTA; all [mp], sugars by position not given here; further chemistry not fully specified) [Oligomer 2517-1]",Tm,[1],41.0 °C
"2571-1: 5'-(G*T)(C*T)(T*C)(C*A)(T*G)(C*A)(T*G)(T*T)(G*T)-C-3', 75% MP(Rp) [Oligomer 2571-1]",Tm,[1],46.3 °C
same,ΔTm,[1]; Rp-enriched versus racemic oligomer of the pair,8.2 °C
"2624-1: 3'-CTGTTG TACGT ACCTTCTG-5' Racemic MP (CTGTTGTACGTACCTTCTG; racemic methylphosphonate, chemistry not fully specified; listed 3' to 5') [Oligomer 2624-1]",Tm,[1],38.6 °C
2681-1: 5'-GTCTTCCA(TGCAT)GTTGTCC-3' [MP][PS/DE][MP] [Oligomer 2681-1],Tm,[2],44.1 °C
same,KA (37° C.),[2],2.1 × 10^7
same,Half-Life for Degradation,S1-endonuclease,12.2 h
same,Half-Life for Degradation,[3],8.1 h
2687-1: 5'-GTCTTCCA(TGCAT)GTTGTCC-3' [75% MP(Rp)][DE][75% MP(Rp)] [Oligomer 2687-1],Tm,[2],52.8 °C
same,KA (37° C.),[2],2.6 × 10^9
"2688-1: 5'-ATG-GTG-TCT-GTT-TGA-GGT-T-3', racemic methylphosphonate (ATGGTGTCTGTTTGAGGTT; all [mp], sugars by position and methylation of C not given here) [Oligomer 2688-1]",Tm,[1],40.0 °C
3214-1: 5'-GTCTTCCA(TGCAT)GTTGTCC-3' [MP(Rp)/DE][PS/DE][MP(Rp)/DE] [Oligomer 3214-1],RNaseH Cleavage after 2 Hrs. at 37° C.,[4],38.0%
same,Tm,[2],61.0 °C
same,KA (37° C.),[2],2.3 × 10^14
same,Half-Life for Degradation,S1-endonuclease,5.0 h
same,Half-Life for Degradation,[3],4.3 h
3256-1: 5'-GTCTTCCA(TGCAT)GTTGTCC-3' [MP(Rp)/DE][PS][MP(Rp)/DE] [Oligomer 3256-1],RNaseH Cleavage after 2 Hrs. at 37° C.,[4],18.7%
same,Tm,[2],60.1 °C
same,KA (37° C.),[2],5.5 × 10^13
same,Half-Life for Degradation,S1-endonuclease,12.5 h
same,Half-Life for Degradation,[3],16.2 h
3257-1: 5'-GTCTTC(CATGCAT)GTTGTCC-3' [MP(Rp)/DE][PS/DE][MP(Rp)/DE] [Oligomer 3257-1],Tm,[2],60.9 °C
same,KA (37° C.),[2],2.1 × 10^14
"XV-7: 24mer, all phosphorothioate: 5' ccc tga gag aga gag aga ggt tcg 3' (CCCTGAGAGAGAGAGAGAGGTTCG; all phosphorothioate, sugars by position and methylation of C not given here)","percent inhibition of CAT expression, pG1035 = splicing",pG1035 (SplicerCAT),17 ± 6%
